Test results from the OligoGym collection.
HELM strings list units from the 5' end as sugar, base in round brackets, then linkage (d deoxyribose, r ribose, m 2'-O-methyl, p phosphodiester). Strings are as the collection lists them; they lack the last nucleoside at the 3' end of the tested compound. [moe] = 2'-O-(2-methoxyethyl) (MOE); [sp] = phosphorothioate linkage; [m5C] = 5-methylcytosine

Target: ATXN2
Assay: mouse, dose not given
Settings: ASO

RNA1{[moe](A)[sp].[moe](T)p.[moe](A)p.[moe]([m5C])p.[moe](T)p.d([m5C])[sp].d(T)[sp].d([m5C])[sp].d([m5C])[sp].d(A)[sp].d(T)[sp].d(T)[sp].d(A)[sp].d(T)[sp].d(T)[sp].[moe](T)p.[moe]([m5C])p.[moe](T)[sp].[moe](T)}$$$$ (last 3' nucleoside missing)
3 h FOB score: 0 score 0-7

RNA1{[moe](A)[sp].[moe](T)p.[moe](G)p.[moe](A)p.[moe](T)p.d([m5C])[sp].d(T)[sp].d(T)[sp].d(G)[sp].d(T)[sp].d(G)[sp].d(T)[sp].d(A)[sp].d(T)[sp].d(A)[sp].[moe](T)p.[moe](A)p.[moe](T)[sp].[moe](T)}$$$$ (last 3' nucleoside missing)
3 h FOB score: 6 score 0-7

RNA1{[moe](A)[sp].[moe](T)p.[moe](G)p.[moe](T)p.[moe](A)p.d(G)[sp].d(T)[sp].d(T)[sp].d(A)[sp].d([m5C])[sp].d(A)[sp].d(T)[sp].d(G)[sp].d(T)[sp].d(A)[sp].[moe](A)p.[moe]([m5C])p.[moe]([m5C])[sp].[moe](A)}$$$$ (last 3' nucleoside missing)
3 h FOB score: 2 score 0-7

RNA1{[moe](A)[sp].[moe](T)p.[moe](G)p.[moe]([m5C])p.[moe](A)p.d(A)[sp].d([m5C])[sp].d(T)[sp].d(T)[sp].d(A)[sp].d(A)[sp].d(T)[sp].d(A)[sp].d(A)[sp].d([m5C])[sp].[moe]([m5C])p.[moe](T)p.[moe](T)[sp].[moe](A)}$$$$ (last 3' nucleoside missing)
3 h FOB score: 0.25 score 0-7

RNA1{[moe](A)[sp].[moe](T)p.[moe](G)p.[moe]([m5C])p.[moe](A)p.d(G)[sp].d(T)[sp].d(A)[sp].d([m5C])[sp].d(A)[sp].d(A)[sp].d([m5C])[sp].d(A)[sp].d(T)[sp].d(T)[sp].[moe]([m5C])p.[moe]([m5C])p.[moe](A)[sp].[moe](T)}$$$$ (last 3' nucleoside missing)
3 h FOB score: 0 score 0-7

RNA1{[moe](A)[sp].[moe](T)p.[moe](G)p.[moe]([m5C])p.[moe](A)p.d([m5C])[sp].d(T)[sp].d(G)[sp].d([m5C])[sp].d(T)[sp].d(T)[sp].d(G)[sp].d([m5C])[sp].d([m5C])[sp].d(T)[sp].[moe](G)p.[moe](G)p.[moe](A)[sp].[moe](G)}$$$$ (last 3' nucleoside missing)
3 h FOB score: 5 score 0-7

RNA1{[moe](A)[sp].[moe](T)p.[moe](G)p.[moe]([m5C])p.[moe](T)p.d(G)[sp].d(G)[sp].d(T)[sp].d(T)[sp].d([m5C])[sp].d([m5C])[sp].d(T)[sp].d(T)[sp].d(A)[sp].d([m5C])[sp].[moe](A)p.[moe](A)p.[moe](T)[sp].[moe](T)}$$$$ (last 3' nucleoside missing)
3 h FOB score: 0 score 0-7

RNA1{[moe](A)[sp].[moe](T)p.[moe](T)p.[moe](T)p.[moe](T)p.d(G)[sp].d(A)[sp].d(A)[sp].d(T)[sp].d(T)[sp].d(A)[sp].d([m5C])[sp].d(A)[sp].d(A)[sp].d(T)[sp].[moe](G)p.[moe]([m5C])p.[moe](G)[sp].[moe](G)}$$$$ (last 3' nucleoside missing)
3 h FOB score: 0 score 0-7

RNA1{[moe](A)[sp].[moe](T)p.[moe](T)p.[moe]([m5C])p.[moe](T)[sp].d(G)[sp].d(T)[sp].d(A)[sp].d([m5C])[sp].d(T)[sp].d(T)[sp].d(T)[sp].d(T)[sp].[moe]([m5C])p.[moe](T)p.[moe]([m5C])[sp].[moe](A)}$$$$ (last 3' nucleoside missing)
3 h FOB score: 0 score 0-7

RNA1{[moe](A)[sp].[moe](T)p.[moe](T)p.[moe]([m5C])p.[moe](T)p.d(G)[sp].d(T)[sp].d(A)[sp].d([m5C])[sp].d(T)[sp].d(T)[sp].d(T)[sp].d(T)[sp].d([m5C])[sp].d(T)[sp].[moe]([m5C])p.[moe](A)p.[moe](T)[sp].[moe](G)}$$$$ (last 3' nucleoside missing)
3 h FOB score: 1 score 0-7

RNA1{[moe](A)[sp].[moe](T)p.[moe]([m5C])p.[moe](A)p.[moe](A)p.d([m5C])[sp].d(T)[sp].d([m5C])[sp].d([m5C])[sp].d(A)[sp].d(A)[sp].d(A)[sp].d(G)[sp].d(G)[sp].d(T)[sp].[moe](A)p.[moe](G)p.[moe]([m5C])[sp].[moe](A)}$$$$ (last 3' nucleoside missing)
3 h FOB score: 6 score 0-7

RNA1{[moe](A)[sp].[moe](T)p.[moe]([m5C])p.[moe](A)p.[moe](G)p.d(T)[sp].d(A)[sp].d(T)[sp].d(T)[sp].d(T)[sp].d(A)[sp].d([m5C])[sp].d(T)[sp].d(A)[sp].d([m5C])[sp].[moe](T)p.[moe](T)p.[moe]([m5C])[sp].[moe](T)}$$$$ (last 3' nucleoside missing)
3 h FOB score: 2.75 score 0-7

RNA1{[moe](A)[sp].[moe](T)p.[moe]([m5C])p.[moe](A)p.[moe](G)p.d(T)[sp].d(T)[sp].d(T)[sp].d(G)[sp].d(T)[sp].d(A)[sp].d(T)[sp].d(G)[sp].d(A)[sp].d([m5C])[sp].[moe]([m5C])p.[moe](A)p.[moe](T)[sp].[moe](A)}$$$$ (last 3' nucleoside missing)
3 h FOB score: 3 score 0-7

RNA1{[moe](A)[sp].[moe](T)p.[moe]([m5C])p.[moe](A)p.[moe](T)[sp].d([m5C])[sp].d(A)[sp].d(T)[sp].d(T)[sp].d(T)[sp].d(T)[sp].d([m5C])[sp].d([m5C])[sp].[moe](A)p.[moe](G)p.[moe](G)[sp].[moe](G)}$$$$ (last 3' nucleoside missing)
3 h FOB score: 4.5 score 0-7

RNA1{[moe](A)[sp].[moe](T)p.[moe]([m5C])p.[moe](T)p.[moe](A)p.d(T)[sp].d(G)[sp].d(A)[sp].d(T)[sp].d(T)[sp].d(T)[sp].d(T)[sp].d([m5C])[sp].d(A)[sp].d(T)[sp].[moe]([m5C])p.[moe](A)p.[moe](G)[sp].[moe](G)}$$$$ (last 3' nucleoside missing)
3 h FOB score: 0 score 0-7

RNA1{[moe](A)[sp].[moe]([m5C])p.[moe](A)p.[moe](G)p.[moe](T)p.d(T)[sp].d(T)[sp].d([m5C])[sp].d(A)[sp].d([m5C])[sp].d(T)[sp].d(A)[sp].d(G)[sp].d(G)[sp].d(T)[sp].[moe](T)p.[moe]([m5C])p.[moe](T)[sp].[moe]([m5C])}$$$$ (last 3' nucleoside missing)
3 h FOB score: 3.25 score 0-7

RNA1{[moe](A)[sp].[moe]([m5C])p.[moe](A)p.[moe](T)p.[moe](A)p.d(G)[sp].d(G)[sp].d(T)[sp].d(T)[sp].d(A)[sp].d(G)[sp].d(A)[sp].d(A)[sp].d(T)[sp].d(T)[sp].[moe](T)p.[moe](T)p.[moe]([m5C])[sp].[moe]([m5C])}$$$$ (last 3' nucleoside missing)
3 h FOB score: 1 score 0-7

RNA1{[moe](A)[sp].[moe]([m5C])p.[moe](A)p.[moe]([m5C])[sp].[moe](A)[sp].d(G)[sp].d(T)[sp].d(T)[sp].d(T)[sp].d([m5C])[sp].d(A)[sp].d([m5C])[sp].d(T)[sp].d(A)[sp].d(G)[sp].[moe](G)p.[moe](T)p.[moe](T)[sp].[moe]([m5C])}$$$$ (last 3' nucleoside missing)
3 h FOB score: 2 score 0-7

RNA1{[moe](A)[sp].[moe]([m5C])p.[moe](A)p.[moe]([m5C])p.[moe](A)[sp].d(G)[sp].d(T)[sp].d(T)[sp].d(T)[sp].d([m5C])[sp].d(A)[sp].d([m5C])[sp].d(T)[sp].d(A)[sp].d(G)[sp].[moe](G)p.[moe](T)p.[moe](T)[sp].[moe]([m5C])}$$$$ (last 3' nucleoside missing)
3 h FOB score: 4.75 score 0-7

RNA1{[moe](A)[sp].[moe]([m5C])p.[moe](A)p.[moe]([m5C])p.[moe](A)p.[moe](G)p.d(T)[sp].d(T)[sp].d(T)[sp].d([m5C])[sp].d(A)[sp].d([m5C])[sp].d(T)[sp].d(A)[sp].d(G)[sp].d(G)[sp].[moe](T)p.[moe](T)[sp].[moe]([m5C])}$$$$ (last 3' nucleoside missing)
3 h FOB score: 1 score 0-7

RNA1{[moe](A)[sp].[moe]([m5C])p.[moe](A)p.[moe]([m5C])p.[moe](A)p.d(G)[sp].d(T)[sp].d(T)[sp].d(T)[sp].d([m5C])[sp].d(A)[sp].d([m5C])[sp].d(T)[sp].d(A)[sp].d(G)[sp].[moe](G)p.[moe](T)p.[moe](T)[sp].[moe]([m5C])}$$$$ (last 3' nucleoside missing)
3 h FOB score: 0 score 0-7

RNA1{[moe](A)[sp].[moe]([m5C])p.[moe](A)p.[moe]([m5C])p.d(A)[sp].d(G)[sp].d(T)[sp].d(T)[sp].d(T)[sp].d([m5C])[sp].d(A)[sp].d([m5C])[sp].d(T)[sp].d(A)[sp].[moe](G)p.[moe](G)p.[moe](T)p.[moe](T)[sp].[moe]([m5C])}$$$$ (last 3' nucleoside missing)
3 h FOB score: 0 score 0-7

RNA1{[moe](A)[sp].[moe]([m5C])p.[moe](G)p.[moe]([m5C])p.[moe](G)p.d(G)[sp].d(T)[sp].d(G)[sp].d(A)[sp].d(A)[sp].d(T)[sp].d(T)[sp].d([m5C])[sp].d(T)[sp].d(G)[sp].[moe](T)p.[moe]([m5C])p.[moe](T)[sp].[moe]([m5C])}$$$$ (last 3' nucleoside missing)
3 h FOB score: 1 score 0-7

RNA1{[moe](A)[sp].[moe]([m5C])p.[moe](G)p.[moe]([m5C])p.[moe](T)p.d(G)[sp].d(T)[sp].d(A)[sp].d(T)[sp].d(T)[sp].d(T)[sp].d(T)[sp].d(T)[sp].d(A)[sp].d([m5C])[sp].[moe](T)p.[moe]([m5C])p.[moe](A)[sp].[moe]([m5C])}$$$$ (last 3' nucleoside missing)
3 h FOB score: 0 score 0-7

RNA1{[moe](A)[sp].[moe]([m5C])p.[moe](T)p.[moe](G)p.[moe](A)p.d(G)[sp].d(T)[sp].d(T)[sp].d([m5C])[sp].d(T)[sp].d(A)[sp].d(T)[sp].d(A)[sp].d(G)[sp].d(G)[sp].[moe](T)p.[moe](G)p.[moe]([m5C])[sp].[moe](T)}$$$$ (last 3' nucleoside missing)
3 h FOB score: 3 score 0-7

RNA1{[moe](A)[sp].[moe]([m5C])p.[moe](T)p.[moe](G)p.[moe](G)p.d(A)[sp].d(T)[sp].d(T)[sp].d([m5C])[sp].d(T)[sp].d(G)[sp].d(T)[sp].d(A)[sp].d([m5C])[sp].d(T)[sp].[moe](T)p.[moe](T)p.[moe](T)[sp].[moe]([m5C])}$$$$ (last 3' nucleoside missing)
3 h FOB score: 2 score 0-7
